These are literature values, as cited in patent US20190298786A1, “EXTRACTS OF SAUDI ARABIAN HERBAL PLANTS, ANTI-CANCER METHOD USING SUCH EXTRACTS, AND CYTOLOGICAL PROFILING USING AUTOMATED HIGH-CONTENT IMAGING TECHNIQUE” (King Abdullah University of Science and Technology, priority 2016, published 2019).

For series [1], the system named is human cervical cancer (HOG-1) cell. To be noted: HOG-1 cells, different concentrations.

≈ marks a conversion by molar mass, not a printed value.

With `CC(C)(C)c1ccc(O)c(C(C)(C)C)c1` [2,4-ditert-butylphenol], the “IC50 (cytotoxic effects)” value in the series on KB cells is 0.81 µg/mL (≈ 3.93 µM); in the series on CasKi cells, 4.5 µg/mL (≈ 21.8 µM); with MCF7 cells, 5.75 µg/mL (≈ 27.9 µM).

Turning to `CCCCCCCCCCCCCCCCCC(=O)O` [stearic acid, Stearic acid], in series [1], the “effect on cell growth and DNA synthesis” value is reported as “inhibited”.
